# Assay results reported in PubChem BioAssay AID1199 (EPA DSSTox, 2008).
# Calls of active or inactive are those of the source.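 How the source made its calls: active means a tumour-causing dose and a tumour site recorded for mice in at least one sex group; inconclusive means only government mouse studies exist and were judged inadequate; inactive means mouse studies exist but none gave tumours.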
# Test system: mouse carcinogenicity bioassay, TD50 from CPDB
# Assay: DSSTox (CPDBAS) Carcinogenic Potency Database Summary Mouse Bioassay Results
# Details: TD50_Mouse_Note: TD50_Mouse_mmol was not calculated for this mixture, but Activiity Score is assigned value of 50 to indicate active; TargetSites_Mouse_Female: no positive results
# How it was run: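 Values are TD50 carcinogenic potencies from mouse chronic bioassays, taking the most positive result for each sex-species. Sources are published literature and NCI/NTP studies; target sites reflect author-reported positive findings.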
row,SMILES,outcome
1,CCOc1ccc(NC(=O)CC(C)O)cc1 (configuration not stated),active; kidney

# Same assay, conditions: TD50_Mouse_Note: TD50 is harmonic mean of more than one positive test
row,SMILES,Potency [mmol/kg/day]
1,CC(C)(Oc1ccc(C2CC2(Cl)Cl)cc1)C(=O)O (configuration not stated),0.0214

# Same assay, conditions: TD50_Mouse_Note: TD50 is harmonic mean of more than one positive test; TargetSites_Mouse_Female: harderian gland; kidney
row,SMILES,Potency [mmol/kg/day]
1,ClC#CCl,0.00605

# Same assay, conditions: TD50_Mouse_Note: TD50 is harmonic mean of more than one positive test; TargetSites_Mouse_Female: harderian gland; liver; thyroid gland
row,SMILES,Potency [mmol/kg/day]
1,Nc1ccc(Oc2ccc(N)cc2)cc1,0.168

# Same assay, conditions: TD50_Mouse_Note: TD50 is harmonic mean of more than one positive test; TargetSites_Mouse_Female: hematopoietic system; liver; thyroid gland
row,SMILES,Potency [mmol/kg/day]
1,Nc1ccc(Cc2ccc(N)cc2)cc1,0.119

# Same assay, conditions: TD50_Mouse_Note: TD50 is harmonic mean of more than one positive test; TargetSites_Mouse_Female: hematopoietic system; lung
row,SMILES,Potency [mmol/kg/day]
1,O=c1[nH]cc(F)c(=O)[nH]1,0.0228

# Same assay, conditions: TD50_Mouse_Note: TD50 is harmonic mean of more than one positive test; TargetSites_Mouse_Female: hematopoietic system; stomach
row,SMILES,Potency [mmol/kg/day]
1,O=CNNc1nc(-c2ccc([N+](=O)[O-])o2)cs1,0.0425

# Same assay, conditions: TD50_Mouse_Note: TD50 is harmonic mean of more than one positive test; TargetSites_Mouse_Female: liver
row,SMILES,Potency [mmol/kg/day]
1,CCCCOCCOCCOCc1cc2c(cc1CCC)OCO2,0.86
2,Nc1cc(Cl)c(N)c(Cl)c1,4.54
3,Cc1ncc[nH]1,9.52
4,CCCCC(CC)COC(=O)c1ccccc1C(=O)OCC(CC)CCCC (configuration not stated),1.79
5,O=C(O)c1cc(N=Nc2ccc(S(=O)(=O)Nc3ccccn3)cc2)ccc1O,3.14
6,ClC(Cl)C(Cl)Cl,0.228
7,Nc1nc(N)c2nc(-c3ccccc3)c(N)nc2n1,0.238

# Same assay, conditions: TD50_Mouse_Note: TD50 is harmonic mean of more than one positive test; TargetSites_Mouse_Female: liver; vascular system
row,SMILES,Potency [mmol/kg/day]
1,Nc1ccc2nc3ccccn3c2n1,0.0869

# Same assay, conditions: TD50_Mouse_Note: TD50 is harmonic mean of more than one positive test; TargetSites_Mouse_Female: lung
row,SMILES,Potency [mmol/kg/day]
1,CCCc1ccc2c(c1)OCO2,0.761

# Same assay, conditions: TD50_Mouse_Note: TD50 is harmonic mean of more than one positive test; TargetSites_Mouse_Female: lung; vascular system
row,SMILES,Potency [mmol/kg/day]
1,CCN(N)C=O,0.0318

# Same assay, conditions: TD50_Mouse_Note: TD50 is harmonic mean of more than one positive test; TargetSites_Mouse_Female: peritoneal cavity
row,SMILES,Potency [mmol/kg/day]
1,ClCOCCl,0.00158

# Same assay, conditions: TD50_Mouse_Note: TD50 is harmonic mean of more than one positive test; TargetSites_Mouse_Female: stomach
row,SMILES,Potency [mmol/kg/day]
1,OCCBr,0.609
2,C=CC(=O)OCC,3.24
3,CCCCOCCO,14.5
4,ClCc1cccnc1,1.4

# Same assay, conditions: TD50_Mouse_Note: TD50 is harmonic mean of more than one positive test; harmonic mean of TD50 includes a value for upper 99% confidence li; TargetSites_Mouse_Female: liver
row,SMILES,Potency [mmol/kg/day]
1,CCC1(c2ccccc2)C(=O)N=C(O)NC1=O (configuration not stated),0.117
2,C=CCc1ccc2c(c1)OCO2,0.316

# Same assay, conditions: TD50_Mouse_Note: no positive results
row,SMILES,outcome
1,ClC(Cl)=C(Cl)c1c(Cl)c(Cl)c(Cl)c(Cl)c1Cl,inactive; no positive results

# Same assay, conditions: TD50_Mouse_Note: no positive results are statistically significant; TargetSites_Mouse_Female: no positive results
row,SMILES,Potency [mmol/kg/day]
1,Cc1cccc(N)c1,10

# Same assay, conditions: TD50_Mouse_Note: no positive results; TargetSites_Mouse_Female: no positive results
row,SMILES,outcome
1,[Cl-].[Cl-].[Sn+2],inactive; no positive results
2,COP(=S)(OC)SCn1nnc2ccccc2c1=O,inactive; no positive results
3,CCCOC(=O)C1c2cc3c(cc2CC(C)C1C(=O)OCCC)OCO3 (configuration not stated),inactive; no positive results
4,CCCCOCCOCCOCc1cc2c(cc1CCC)OCO2,inactive; no positive results
5,O=C(CCl)c1ccccc1,inactive; no positive results
6,O=C(O)CN(CCN(CC(=O)O)CC(=O)O)CC(=O)O,inactive; no positive results
7,CCCCOC(=O)c1ccccc1C(=O)OCc1ccccc1,inactive; no positive results
8,OC[P+](CO)(CO)CO,inactive; no positive results
9,CN(C)CCO,inactive
10,CC1=C(/C=C/C(C)=C/C=C/C(C)=C/C=C/C=C(C)/C=C/C=C(C)/C=C/C2=C(C)CCCC2(C)C)C(C)(C)CCC1,inactive; no positive results
11,CC(=O)Oc1ccccc1C(=O)O,inactive; no positive results
12,NS(=O)(=O)c1cc2c(cc1Cl)NCNS2(=O)=O,inactive; no positive results
13,CCN(CC)C(=S)S[Te](SC(=S)N(CC)CC)(SC(=S)N(CC)CC)SC(=S)N(CC)CC,inactive; no positive results
14,Oc1ccc(OCc2ccccc2)cc1,inactive; no positive results
15,Nc1ccc(NC(=O)c2ccc(N)cc2)cc1,inactive; no positive results
16,O=C1C(Cl)=C(Cl)C(=O)c2ccccc21,inactive; no positive results
17,Oc1c(Cl)cc(Cl)cc1Sc1cc(Cl)cc(Cl)c1O,inactive; no positive results
18,C=CCc1ccc(O)c(OC)c1,inactive; no positive results
19,CC1(C)[C@H](C(=O)O[C@H](C#N)c2cccc(Oc3ccccc3)c2)[C@@H]1C=C(Br)Br,inactive; no positive results
20,CNC(=O)O/N=C(\SC)C(=O)N(C)C,inactive; no positive results
21,CCN(CC)C(=O)/C(Cl)=C(\C)OP(=O)(OC)OC,inactive; no positive results
22,CN(C)C(=O)Nc1cccc(C(F)(F)F)c1,inactive; no positive results
23,CC[C@H]1OC(=O)[C@H](C)[C@@H](O[C@H]2C[C@@](C)(OC)[C@@H](O)[C@H](C)O2)[C@H](C)[C@@H](O[C@@H]2O[C@H](C)C[C@H](N(C)C)[C@H]2O)[C@](C)(O)C[C@@H](C)C(=O)[C@H](C)[C@@H](O)[C@]1(C)O,inactive; no positive results
24,C/C=C/C=C/C(=O)O,inactive; no positive results

row,SMILES,outcome
1,O=C(O)c1ccccc1,inactive; no positive results
2,CNC(=O)Oc1cc(C)c(N(C)C)c(C)c1,inactive; no positive results
3,COC(=O)C1=C(C)NC(C)=C(C(=O)OCCN2CCN(C(c3ccccc3)c3ccccc3)CC2)C1c1cccc([N+](=O)[O-])c1 (configuration not stated),inactive; no positive results
4,CC1(C)S[C@@H]2[C@H](NC(=O)[C@H](N)c3ccccc3)C(=O)N2[C@H]1C(=O)O,inactive; no positive results
5,CC1(C)S[C@@H]2[C@H](NC(=O)COc3ccccc3)C(=O)N2[C@H]1C(=O)O,inactive; no positive results
6,CN[C@@H](C)[C@H](O)c1ccccc1,inactive; no positive results
7,NC(=O)c1cccnc1,inactive; no positive results
8,O=C(O)Cc1cccc2ccccc12,inactive; no positive results
9,O=C1CCCCCN1,inactive; no positive results
10,O=S(=O)([O-])[O-].[Cd+2],inactive
11,COc1cc(/C=C/C(=O)CC(=O)/C=C/c2ccc(O)c(OC)c2)ccc1O,inactive; no positive results
12,O=[N+]([O-])c1cccc2ccccc12,inactive; no positive results
13,ClC1C2(Cl)C3C4C5OC5C5C4C1(Cl)C(Cl)(C53)C2(Cl)Cl (configuration not stated),inactive; no positive results
14,CC(C)OC(=O)Nc1cccc(Cl)c1,inactive; no positive results
15,Cn1cc(OCC(O)CNC(C)(C)C)c2ccccc2c1=O (configuration not stated),inactive; no positive results
16,CCC(Br)(CC)C(=O)NC(N)=O,inactive; no positive results
17,C=C(C)[C@H]1CC=C(C)CC1,inactive; no positive results
18,O=C1O[C@H]([C@@H](O)CO)C(O)=C1O,inactive; no positive results
19,O=C(O)CCl,inactive; no positive results
20,Cn1c(=O)c2[nH]cnc2n(C)c1=O,inactive; no positive results
21,C=CC=O,inactive; no positive results
22,CC(=O)Nc1ccc(OCC(O)CNC(C)C)cc1 (configuration not stated),inactive; no positive results
23,CN(Cc1cnc2nc(N)nc(N)c2n1)c1ccc(C(=O)N[C@@H](CCC(=O)O)C(=O)O)cc1,inactive; no positive results
24,O=c1c(CO)c/c(=N/Nc2ccc(S(=O)(=O)O)c3ccccc23)c(=O)/c1=N/Nc1ccc(S(=O)(=O)O)c2ccccc12,inactive; no positive results

# Same assay, conditions: TargetSites_Mouse_BothSexes: pituitary gland
row,SMILES,Potency [mmol/kg/day]
1,CCCc1cc(=O)[nH]c(=S)[nH]1,2.4

# Same assay, conditions: TargetSites_Mouse_Female: hematopoietic system
row,SMILES,Potency [mmol/kg/day]
1,Nc1nc(-c2ccc([N+](=O)[O-])cc2)cs1,0.045

# Same assay, conditions: TargetSites_Mouse_Female: liver
row,SMILES,Potency [mmol/kg/day]
1,CCCC[C@H](C)[C@@H](OC(=O)C[C@H](CC(=O)O)C(=O)O)[C@@H](C[C@H](C)C[C@@H](O)CCCC[C@@H](O)C[C@H](O)[C@H](C)N)OC(=O)C[C@H](CC(=O)O)C(=O)O,0.00941
2,c1ccc(NNc2ccccc2)cc1,0.141

# Same assay, conditions: TargetSites_Mouse_Female: no positive results
row,SMILES,Potency [mmol/kg/day]
1,CC(N)=O,51
2,N[C@@H](CCC(=O)NNc1ccc(C(=O)O)cc1)C(=O)O,0.985
3,O=Nc1ccc(Nc2ccccc2)cc1,1.72
4,CC(COc1ccc(C(C)(C)C)cc1)OS(=O)OCCCl (configuration not stated),0.472
5,Nc1c(F)c(N)c(F)c(F)c1F,0.341
6,O=C1c2ccccc2-c2ccc3c4c(ccc1c24)-c1ccccc1C3=O,32.8

# Same assay, conditions: TargetSites_Mouse_Female: small intestine
row,SMILES,Potency [mmol/kg/day]
1,OO,222

# Same assay, conditions: TargetSites_Mouse_Female: uterus
row,SMILES,Potency [mmol/kg/day]
1,CCBr,4.91
2,CCCl,28.1
